Results as given in PubChem BioAssay AID192 (DTP/NCI, 2004).
Several values for one entry are separate records, joined by “and”; a condition that tells them apart may be missing. Equal entries are not always repeated. Inconclusive results and toxic doses are left out.

Tested on: BDF1 mice, B16 melanoma ip, median survival T/C
Experiment: NCI In Vivo Anticancer Drug Screen. Data for tumor model B16 Melanoma (intraperitoneal) in B6D2F1 (BDF1) mice
Details: endpoint: median survival time, higher = longer survival
Method in brief: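 Compounds were tested in mice carrying transplantable tumors. Survival or tumor size was recorded, and each value is the treated-group measurement (T) divided by that of the vehicle-treated control group (C).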

[1] = dose: 0.25 mg/kg/injection, schedule: Q01DX009 (ip), vehicle: saline
[2] = dose: 6.25 mg/kg/injection, schedule: Q01DX009 (ip), vehicle: saline
[3] = dose: 12.5 mg/kg/injection, schedule: Q01DX009 (ip), vehicle: saline
[4] = dose: 25.0 mg/kg/injection, schedule: Q01DX009 (ip), vehicle: saline
[5] = dose: 50.0 mg/kg/injection, schedule: Q01DX009 (ip), vehicle: saline

## COC1C(O)CC(OC2CC(Oc3cc4cc5c(c(O)c4c(O)c3C)C(=O)[C@@H](OC3CC(OC4CC(OC6CC(C)(O)C(OC(C)=O)C(C)O6)C(O)C(C)O4)C(O)C(C)O3)[C@H]([C@H](OC)C(=O)[C@@H](O)[C@@H](C)O)C5)OC(C)C2OC(C)=O)OC1C (stereo partly drawn)
dose: 0.01 mg/kg/injection, schedule: Q01DX009 (ip), vehicle: Klucel (hydroxypropylcellulose) (HPC)
  T/C: 111 % of control
dose: 0.02 mg/kg/injection, schedule: Q01DX009 (ip), vehicle: Klucel (hydroxypropylcellulose) (HPC)
  T/C: 111 % of control
dose: 0.02 mg/kg/injection, schedule: Q01DX009 (ip), vehicle: saline
  T/C: 167 % of control
dose: 0.03 mg/kg/injection, schedule: Q01DX009 (ip), vehicle: saline
  T/C: 152 % of control
dose: 0.04 mg/kg/injection, schedule: Q01DX009 (ip), vehicle: Klucel (hydroxypropylcellulose) (HPC)
  T/C: 123 % of control
dose: 0.04 mg/kg/injection, schedule: Q01DX009 (ip), vehicle: saline
  T/C: 175 % of control
dose: 0.07 mg/kg/injection, schedule: Q01DX009 (ip), vehicle: saline
  T/C: 161 % of control
dose: 0.08 mg/kg/injection, schedule: Q01DX009 (ip), vehicle: saline
  T/C: 154 % of control
dose: 0.13 mg/kg/injection, schedule: Q01DX009 (ip), vehicle: saline
  T/C: 150 % of control
dose: 0.16 mg/kg/injection, schedule: Q01DX009 (ip), vehicle: Klucel (hydroxypropylcellulose) (HPC)
  T/C: 150 % of control and 157 % of control
dose: 0.16 mg/kg/injection, schedule: Q01DX009 (ip), vehicle: saline
  T/C: 152 % of control
[1]
  T/C: 152 % of control
dose: 0.32 mg/kg/injection, schedule: Q01DX009 (ip), vehicle: saline
  T/C: 94 % of control
dose: 3.8 micrograms/kg/injection, schedule: Q01DX009 (ip), vehicle: water
  T/C: 111 % of control
dose: 7.5 micrograms/kg/injection, schedule: Q01DX009 (ip), vehicle: water
  T/C: 109 % of control
dose: 15.0 micrograms/kg/injection, schedule: Q01DX009 (ip), vehicle: Klucel (hydroxypropylcellulose) (HPC)
  T/C: 109 % of control
dose: 15.0 micrograms/kg/injection, schedule: Q01DX009 (ip), vehicle: saline
  T/C: 94 % of control
dose: 30.0 micrograms/kg/injection, schedule: Q01DX009 (ip), vehicle: Klucel (hydroxypropylcellulose) (HPC)
  T/C: 96 % of control
dose: 30.0 micrograms/kg/injection, schedule: Q01DX009 (ip), vehicle: saline
  T/C: 88 % of control
dose: 30.0 micrograms/kg/injection, schedule: Q01DX009 (ip), vehicle: water
  T/C: 159 % of control
dose: 60.0 micrograms/kg/injection, schedule: Q01DX009 (ip), vehicle: saline
  T/C: 100 % of control
dose: 120.0 micrograms/kg/injection, schedule: Q01DX009 (ip), vehicle: Klucel (hydroxypropylcellulose) (HPC)
  T/C: 109 % of control
dose: 120.0 micrograms/kg/injection, schedule: Q01DX009 (ip), vehicle: saline
  T/C: 94 % of control
dose: 240.0 micrograms/kg/injection, schedule: Q01DX009 (ip), vehicle: saline
  T/C: 100 % of control

## CC1CN1CC(O)C(O)CN1CC1C (stereo not drawn)
[1]
  T/C: 100 % of control
dose: 0.4 mg/kg/injection, schedule: Q01DX009 (ip), vehicle: saline
  T/C: 110 % of control
dose: 0.5 mg/kg/injection, schedule: Q01DX009 (ip), vehicle: saline
  T/C: 107 % of control and 102 % of control
dose: 0.6 mg/kg/injection, schedule: Q01DX009 (ip), vehicle: saline
  T/C: 118 % of control
dose: 0.63 mg/kg/injection, schedule: Q01DX009 (ip), vehicle: saline
  T/C: 150 % of control
dose: 0.8 mg/kg/injection, schedule: Q01DX009 (ip), vehicle: saline
  T/C: 110 % of control
dose: 0.9 mg/kg/injection, schedule: Q01DX009 (ip), vehicle: saline
  T/C: 153 % of control
dose: 1.25 mg/kg/injection, schedule: Q01DX009 (ip), vehicle: saline
  T/C: 93 % of control
dose: 2.0 mg/kg/injection, schedule: Q01DX009 (ip), vehicle: saline
  T/C: 156 % of control and 151 % of control
dose: 2.5 mg/kg/injection, schedule: Q01DX009 (ip), vehicle: saline
  T/C: 106 % of control

## CCCCOC(=O)c1ccc(NC(=O)Nc2ccccc2Cl)cc1
dose: 12.5 mg/kg/injection, schedule: Q01DX009 (ip), vehicle: saline with Tween-80
  T/C: 102 % of control
dose: 25.0 mg/kg/injection, schedule: Q01DX009 (ip), vehicle: saline with Tween-80
  T/C: 102 % of control
dose: 50.0 mg/kg/injection, schedule: Q01DX009 (ip), vehicle: saline with Tween-80
  T/C: 88 % of control and 100 % of control

## CN(C)CC/C=C1\c2ccccc2CN(C)c2ccccc21
[2]
  T/C: 102 % of control
[3]
  T/C: 107 % of control
[4]
  T/C: 94 % of control
[5]
  T/C: 99 % of control

## CC(N)C(O)c1cccc(O)c1 (stereo not drawn)
[2]
  T/C: 94 % of control
[3]
  T/C: 102 % of control
[4]
  T/C: 105 % of control
[5]
  T/C: 100 % of control

## CCCCCCCCCC(=O)N(C)OC
dose: 12.5 mg/kg/injection, schedule: Q04DX003 (ip), vehicle: saline with Tween-80
  T/C: 100 % of control
dose: 25.0 mg/kg/injection, schedule: Q04DX003 (ip), vehicle: saline with Tween-80
  T/C: 104 % of control
dose: 50.0 mg/kg/injection, schedule: Q04DX003 (ip), vehicle: saline with Tween-80
  T/C: 100 % of control
